Results published in US20110146678A1, “PROCESS FOR IMPROVING CRYSTALLINITY” (priority 2008, published 2011).

How the values were obtained:
[1] = Aerosolisation efficiency of 500/25 FP/SX combination DPI formulation, NGI via Cyclohaler; format: physicochemical; details: 500/25 formulation
Experimental: Following content uniformity testing, […] of the blend containing the FP sample 3 blend or Advair was loaded into size 3 hydroxypropylmethyl cellulose capsules (HPMC, Shionogi Qualicaps S A, Basingstoke, UK). The capsules were stored at 44% RH for 24 h prior to in vitro performance testing.
Testing was performed using a Next Generation Impactor (NGI) with pre-separator, which was connected to a vacuum pump (GE Motors). Prior to testing, the pre-separator was filled with 15 ml of mobile phase and the cups of the NGI cups were coated with 1% v/v silicone oil in hexane to eliminate particle bounce.
For each experiment, two individual capsules of the same formulation were discharged into the NGI at 90 Lpm for 2.8 s via a Cyclohaler (TEVA Pharmaceuticals, Netherlands) to ensure both devices were operated such that 4 kPa pressure drop was generated.
Following aerosolization, the NGI apparatus was dismantled and the inhaler, capsules and each part of the NGI was washed down into known volumes of HPLC mobile phase. The mass of drug deposited on each part of the NGI was determined by HPLC. This protocol was repeated three times for each blend, following which, the fine particle dose (FPD) and fine particle fraction of the loaded dose (FPFLD) were determined. The FPD represented the mass of drug that was collected on stages 3-8 of the NGI.

[2] = pMDI formulation, particle fraction distribution on NGI stages; format: physicochemical; details: stage 5 cut-off 1.36 μm, listed as micronized material
Experimental: Both samples were produced in a similar manner to sample 2 of Example 2. Sample 1 was prepared from atomization of a 3% solution of fluticasone propionate in 20% dichloromethane in methanol (3 g in 100 ml) and Sample 5 was prepared from atomization of 3% solution in acetone (3 g in 100 ml). […] The FPF values were 11.80% and 13.80% on stage 5 for samples 5 and 1 respectively compared with 6.20% for micronized material.

[3] = Cyclohaler 90 Lpm, NGI stages 3-8

Row | fine particle fraction for SX ([1]; Cyclohaler) | fine particle fraction for the engineered FP ([1]; Cyclohaler) | FPD for FP [1, 3] | FPD for SX [1, 3] | FPF on stage 5 of the NGI [2] | Compound
1 | 44% | 15.8% | 79 µg | 11 µg |  | CCC(=O)O[C@]1(C(=O)SCF)[C@H](C)C[C@H]2[C@@H]3C[C@H](F)C4=CC(=O)C=C[C@]4(C)[C@@]3(F)[C@@H](O)C[C@@]21C [Sample 3, Fluticasone propionate]
2 |  |  |  |  | 6.20% | CCC(=O)O[C@]1(C(=O)SCF)[C@H](C)C[C@H]2[C@@H]3C[C@H](F)C4=CC(=O)C=C[C@]4(C)[C@@]3(F)[C@@H](O)C[C@@]21C [micronized FP, Fluticasone Propionate]
